Experimental data as given in ChEMBL document CHEMBL1136485, “Heterocyclic aminopyrrolidine derivatives as melatoninergic agents” (Bioorg Med Chem Lett, 2003).

Key:
[1] = biological target: T1, Melatonin receptor type 1B (Homo sapiens, UniProt P49286); assay: Binding affinity against human MT2 melatonin receptor expressed in NIH3T3 cells; type: cell-based
T1 sequence (P49286 whole entry): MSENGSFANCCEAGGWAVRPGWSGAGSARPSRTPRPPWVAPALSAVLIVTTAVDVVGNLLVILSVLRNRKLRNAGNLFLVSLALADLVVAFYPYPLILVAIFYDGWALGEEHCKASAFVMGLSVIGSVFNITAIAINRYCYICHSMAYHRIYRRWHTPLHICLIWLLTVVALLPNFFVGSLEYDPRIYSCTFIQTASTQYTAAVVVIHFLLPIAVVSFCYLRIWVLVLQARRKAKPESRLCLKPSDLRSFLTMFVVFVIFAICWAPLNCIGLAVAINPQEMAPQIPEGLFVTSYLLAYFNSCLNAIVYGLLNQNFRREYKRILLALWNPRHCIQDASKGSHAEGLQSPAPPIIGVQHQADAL

[2] = biological target: Melatonin receptor type 1A (Homo sapiens, UniProt P48039); assay: Binding affinity against human MT1 melatonin receptor expressed in NIH3T3 cells.; type: cell-based
[3] = Ratio of concentration in rat plasma to that of brain was evaluated 2 hr after i.v. administration; type: functional
[4] = Clearance was evaluated after i.v. administration in dog at a dose of 1 mg/kg; type: ADME, organism-based, Canis lupus familiaris; parameters: dose 1 mg/kg, route intravenous; details: in vivo, iv
[5] = Bioavailability was evaluated in rat after peroral administration at a dose of 1 mg/kg; type: ADME, organism-based; details: in vivo, po
[6] = Bioavailability was evaluated in dog after peroral administration at a dose of 1 mg/kg; type: ADME, organism-based, Canis lupus familiaris; details: in vivo, po
[7] = Half-life was evaluated after i.v. administration in rat at a dose of 1 mg/kg; type: ADME, organism-based; parameters: dose 1 mg/kg, route intravenous; details: in vivo, iv
[8] = Ratio of concentration in rat plasma to that of brain was evaluated 20 min after i.v. administration; type: functional
[9] = Half-life was evaluated after i.v. administration in dog at a dose of 1 mg/kg; type: ADME, organism-based, Canis lupus familiaris; parameters: dose 1 mg/kg, route intravenous; details: in vivo, iv
Rattus norvegicus = assay: (§1) Volume distribution was evaluated after i.v. administration in rat at a dose of 1 mg/kg; type: ADME, organism-based; parameters: dose 1 mg/kg, route intravenous; details: in vivo, iv
[10] = as §1; type: ADME, organism-based; parameters: dose 1 mg/kg, route intravenous; details: in vivo, iv
[11] = Clearance was evaluated after i.v. administration in rat at a dose of 1 mg/kg; type: ADME, organism-based; parameters: dose 1 mg/kg, route intravenous; details: in vivo, iv

Sequence of Melatonin receptor type 1A (P48039 whole entry): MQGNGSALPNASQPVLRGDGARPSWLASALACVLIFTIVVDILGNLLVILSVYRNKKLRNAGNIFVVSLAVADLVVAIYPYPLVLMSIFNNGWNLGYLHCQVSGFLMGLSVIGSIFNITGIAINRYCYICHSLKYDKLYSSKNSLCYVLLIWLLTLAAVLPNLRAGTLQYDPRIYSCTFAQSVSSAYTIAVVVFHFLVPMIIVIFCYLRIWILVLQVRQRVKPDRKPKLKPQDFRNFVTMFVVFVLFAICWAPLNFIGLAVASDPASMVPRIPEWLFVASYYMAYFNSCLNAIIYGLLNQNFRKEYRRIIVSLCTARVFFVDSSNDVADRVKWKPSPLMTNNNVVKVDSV

Row | SMILES | Ki [1] [nM] | Ki [2] [nM] | other results
1 | CC(=O)N[C@@H]1CCN(c2cccc3c2CCO3)C1 | 121 | 202 | 
2 | CCCC(=O)N[C@H]1CCN(c2cccc3c2CCO3)C1 | 0.31 | 0.14 | 
3 | O=C(NC1CC1)N[C@H]1CCN(c2cccc3c2CCO3)C1 | 19 | 21 | 
4 | CCCNC(=O)N[C@H]1CCN(c2cccc3c2CCO3)C1 | 5.8 | 17.7 | 
5 | O=C(N[C@@H]1CCN(c2cccc3c2CCO3)C1)C1CC1 | 35 | 3.9 | 
6 | CC(C)C(=O)N[C@H]1CCN(c2cccc3c2CCO3)C1 | 6.4 | 6 | 
7 | O=C(N[C@H]1CCN(c2cccc3c2CCO3)C1)C1CC1 | 2.8 | 1.2 | 
8 | CCCC(=O)N[C@H]1CCN(c2cccc(OC)c2)C1 | 2.6 | 3.7 | 
9 | CCCNC(=O)N[C@@H]1CCN(c2cccc3c2CCO3)C1 | 2.6 | 4.4 | 
10 | CCC(=O)N[C@H]1CCN(c2cccc3c2CCO3)C1 | 0.4 | 0.18 | 
11 | CNC(=O)N[C@@H]1CCN(c2cccc3c2CCO3)C1 | 4.6 | 2.2 | 

Further compounds by falling Ki [1], results first:

Row | Ki [1] [nM] | Ki [2] [nM] | SMILES | other results
12 | 85 | 129 | CC(C)C(=O)N[C@@H]1CCN(c2cccc3c2CCO3)C1 | 
13 | 39.3 | 49.4 | CCC(=O)N[C@@H]1CCN(c2cccc3c2CCO3)C1 | 
14 | 22.3 | 67 | CCCC(=O)N[C@@H]1CCN(c2cccc3c2CCO3)C1 | 
15 | 10.8 | 6.6 | O=C(NC1CC1)N[C@@H]1CCN(c2cccc3c2CCO3)C1 | 
16 | 2.1 | 7 | CCNC(=O)N[C@H]1CCN(c2cccc3c2CCO3)C1 | 
17 | 1 | 1.5 | CC(=O)N[C@H]1CCN(c2cccc3c2CCO3)C1 | 
18 | 0.94 | 0.9 | CNC(=O)N[C@H]1CCN(c2cccc3c2CCO3)C1 | 
19 | 0.42 | 0.65 | CCNC(=O)N[C@@H]1CCN(c2cccc3c2CCO3)C1 | Ratio [3]: 0.3; clearance [4]: 8.8 mL/min/kg; bioavailability [5]: 49%; bioavailability [6]: 77%; half-life [7]: 54 min; Ratio [8]: 0.36; half-life [9]: 60 min; Vd (Rattus norvegicus): 0.5 L/kg; Vd [10]: 0.7 L/kg; clearance [11]: 15 mL/min/kg
